# Experimental data taken from the supplement of paper PMC11208160.
# Assay: recombinant UMI read abundance after kanamycin selection (control-corrected) (log10(CPM+1)); higher = more efficient recombination; extreme values may be limits of the assay; sequences stand for … in AGTGCAGAGAAAATCGGCCAGTTTTCTCTGCCTGCAGTCCGCATGCCGTGGGACCCCTTGGGTTCTAACCTGTTGCCTAGATTTATGCAGCGGACTGCCTTTCTCCCAAAGTGATAAACCGG…AGGTTGGTTTCACT; site = the 11-nt donor
# Summary of the method: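 Values are reported as log10(CPM+1), obtained by converting sequencing counts to CPM, averaging replicates and scaling by control-derived factors. The counts came from recombinant UMIs amplified by PCR across the donor–target junction. These UMIs came from a pooled Escherichia coli screen of donor and donor-binding-loop pairs for the IS621 bridge recombinase, plated with IPTG (0.07 mM) plus kanamycin or left unselected, in two replicates each.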
# 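Further: IS621 bridge recombinase in Escherichia coli cells against a fixed T5 target plasmid.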
row,Sequence,recombinant UMI read abundance (log10)
1,TGTTCCTCATGGACCGGTTTTCCCGGTAATCCGTATTTGTA (site TGTTCCTCTTA),1.06
2,TGTTCGCCATGGACCGGTTTTCCCGGTAATCCGTATTTGTA (site TGTTCACCTTA),0
3,TGTTCGCCATGGACCGGTTTTCCCGGTAATCCGTATTTGTA (site TGTTCCCCTTA),0.0392
4,TGTTCGCCATGGACCGGTTTTCCCGGTAATCCGTATTTGTA (site TGTTCGCCTTA),0.0127
5,TGTTCGCCATGGACCGGTTTTCCCGGTAATCCGTATTTGTA (site TGTTCTCCTTA),0
6,TGTTTCCCATGGACCGGTTTTCCCGGTAATCCGTATTTGTA (site TGTTACCCTTA),0.139
7,TGTTTCCCATGGACCGGTTTTCCCGGTAATCCGTATTTGTA (site TGTTCCCCTTA),0.0148
8,TGTTTCCCATGGACCGGTTTTCCCGGTAATCCGTATTTGTA (site TGTTGCCCTTA),0.0291
9,TGTTTCCCATGGACCGGTTTTCCCGGTAATCCGTATTTGTA (site TGTTTCCCTTA),0.152
10,TGTTTGGCATGGACCGGTTTTCCCGGTAATCCGTATTTGCT (site AGTTTGGCTAG),0
11,TGTTTGGCATGGACCGGTTTTCCCGGTAATCCGTATTTGCT (site CGTTTGGCTAG),0.00328
12,TGTTTGGCATGGACCGGTTTTCCCGGTAATCCGTATTTGCT (site GGTTTGGCTAG),0.0409
13,TGTTTGGCATGGACCGGTTTTCCCGGTAATCCGTATTTGCT (site TGTTTGGCTAG),0
14,TTAATTTCATGGACCGGTTTTCCCGGTAATCCGTATTTGAA (site TTAATTTCTTT),0
15,TTACCTGCATGGACCGGTTTTCCCGGTAATCCGTATTTGTG (site TTAACTGCTCA),0.013
16,TTACCTGCATGGACCGGTTTTCCCGGTAATCCGTATTTGTG (site TTACCTGCTCA),0.0157
17,TTACCTGCATGGACCGGTTTTCCCGGTAATCCGTATTTGTG (site TTAGCTGCTCA),0.00404
18,TTACCTGCATGGACCGGTTTTCCCGGTAATCCGTATTTGTG (site TTATCTGCTCA),0.00944
19,TTACGTCCATGGACCGGTTTTCCCGGTAATCCGTATTTGGT (site TTACGTCCTAC),0.02

row,Sequence,recombinant UMI read abundance (log10)
1,TTACTGACATGGACCGGTTTTCCCGGTAATCCGTATTTGCC (site GGTTATCCTTC),0.00491
2,TTAGAGACATGGACCGGTTTTCCCGGTAATCCGTATTTGCG (site TAAGAGACTCG),0.923
3,TTAGAGACATGGACCGGTTTTCCCGGTAATCCGTATTTGCG (site TCAGAGACTCG),1.03
4,TTAGAGACATGGACCGGTTTTCCCGGTAATCCGTATTTGCG (site TGAGAGACTCG),0.02
5,TTAGAGACATGGACCGGTTTTCCCGGTAATCCGTATTTGCG (site TTAGAGACTCG),2.16
6,TTAGATGCATGGACCGGTTTTCCCGGTAATCCGTATTTGCC (site TTAGATGCTGG),1.9
7,TTAGCAGCATGGACCGGTTTTCCCGGTAATCCGTATTTGCC (site TTAGCAGCTGG),2.61
8,TTAGCAGCATGGACCGGTTTTCCCGGTAATCCGTATTTGTG (site TTAGCAGCTCA),0.707
9,TTAGCAGCATGGACCGGTTTTCCCGGTAATCCGTATTTGTG (site TTAGCCGCTCA),0.0121
10,TTAGCAGCATGGACCGGTTTTCCCGGTAATCCGTATTTGTG (site TTAGCGGCTCA),0.0104
11,TTAGCAGCATGGACCGGTTTTCCCGGTAATCCGTATTTGTG (site TTAGCTGCTCA),0.00315
12,TTAGCGGCATGGACCGGTTTTCCCGGTAATCCGTATTTGCT (site TTAGCGGCTAG),1.71
13,TTAGCGGCATGGACCGGTTTTCCCGGTAATCCGTATTTGCT (site TTCGCGGCTAG),0
14,TTAGCGGCATGGACCGGTTTTCCCGGTAATCCGTATTTGCT (site TTGGCGGCTAG),0
15,TTAGCGGCATGGACCGGTTTTCCCGGTAATCCGTATTTGCT (site TTTGCGGCTAG),0
16,TTAGCTGCATGGACCGGTTTTCCCGGTAATCCGTATTTGGG (site TTAGCTGCTCA),0
17,TTAGCTGCATGGACCGGTTTTCCCGGTAATCCGTATTTGGG (site TTAGCTGCTCC),0.0113
18,TTAGCTGCATGGACCGGTTTTCCCGGTAATCCGTATTTGGG (site TTAGCTGCTCG),0.0143
19,TTAGCTGCATGGACCGGTTTTCCCGGTAATCCGTATTTGGG (site TTAGCTGCTCT),0

row,Sequence,recombinant UMI read abundance (log10)
1,TTAGCTGCATGGACCGGTTTTCCCGGTAATCCGTATTTGTG (site ATAGCTGCTCA),0.183
2,TTAGCTGCATGGACCGGTTTTCCCGGTAATCCGTATTTGTG (site CTAGCTGCTCA),0.221
3,TTAGCTGCATGGACCGGTTTTCCCGGTAATCCGTATTTGTG (site GTAGCTGCTCA),0.0161
4,TTAGCTGCATGGACCGGTTTTCCCGGTAATCCGTATTTGTG (site TAAGCTGCTCA),0.00653
5,TTAGCTGCATGGACCGGTTTTCCCGGTAATCCGTATTTGTG (site TCAGCTGCTCA),0.0262
6,TTAGCTGCATGGACCGGTTTTCCCGGTAATCCGTATTTGTG (site TGAGCTGCTCA),0.0117
7,TTAGCTGCATGGACCGGTTTTCCCGGTAATCCGTATTTGTG (site TTAACTGCTCA),0.0107
8,TTAGCTGCATGGACCGGTTTTCCCGGTAATCCGTATTTGTG (site TTACCTGCTCA),0.00862
9,TTAGCTGCATGGACCGGTTTTCCCGGTAATCCGTATTTGTG (site TTAGATGCTCA),0.0477
10,TTAGCTGCATGGACCGGTTTTCCCGGTAATCCGTATTTGTG (site TTAGCAGCTCA),0.00587
11,TTAGCTGCATGGACCGGTTTTCCCGGTAATCCGTATTTGTG (site TTAGCCGCTCA),0
12,TTAGCTGCATGGACCGGTTTTCCCGGTAATCCGTATTTGTG (site TTAGCGGCTCA),0.00865
13,TTAGCTGCATGGACCGGTTTTCCCGGTAATCCGTATTTGTG (site TTAGCTACTCA),0.0282
14,TTAGCTGCATGGACCGGTTTTCCCGGTAATCCGTATTTGTG (site TTAGCTCCTCA),0.0123
15,TTAGCTGCATGGACCGGTTTTCCCGGTAATCCGTATTTGTG (site TTAGCTGCTAA),0.0166
16,TTAGCTGCATGGACCGGTTTTCCCGGTAATCCGTATTTGTG (site TTAGCTGCTCA),0.543
17,TTAGCTGCATGGACCGGTTTTCCCGGTAATCCGTATTTGTG (site TTAGCTGCTCC),0.0667
18,TTAGCTGCATGGACCGGTTTTCCCGGTAATCCGTATTTGTG (site TTAGCTGCTCG),0.0153
19,TTAGCTGCATGGACCGGTTTTCCCGGTAATCCGTATTTGTG (site TTAGCTGCTCT),0.162
